Measured values published in patent EP1222921B1, “Pharmaceutical compositions of tizoxanide and/or nitazoxanide” (Romark Laboratories, L.C., priority 1997, dated 1998).
≈ marks a conversion by molar mass, not a printed value. Entries after “also recorded” stand apart in the source; their conditions may differ. Read-outs that look alike come from different tables or passages of the source.

Key:
MDBKF5D2 cell monolayers [1] = assay: Toxicity testing assay (Example III), MTS/PMS; format: cell-based
Experimental: 200µl of medium containing nitazoxanide solution at the pre-mentioned concentrations and the proper controls were introduced into two wells of a 96 well plate containing confluent MDBKFD2 cell monolayers and two wells without monolayers. […] The plate was returned to the incubator in the dark to develop for 2 hours. At 2 hours, 100 µl of each supernatant was transferred to a new microtiter plate and read in the ELISA reader at 490 nm. Results were recorded and analyzed. […] (OD medium - OD drug x 100)/(OD medium) [formula] […]

[2] = test system: RH strain of Toxoplasma gondii; assay: Toxoplasma gondii growth in MRC5 fibroblast cultures, ELISA; format: cell-based
C. parvum oocysts [3] = assay: Intact C. parvum oocyst assay (Example III), immunofluorescence; format: cell-based, Cryptosporidium parvum; conditions: for Parasite - Mean parasite count/field (12 fields analyzed) / %Inhib - Percent inhibitation of parasite infection: 48 hr.; for %Inhib - Percent inhibitation of parasite infection: listed as New NTZdes
Experimental: Each concentration of nitazoxanide and the media controls contained 0.025% DMSO as a constant. The experiment used a cell culture of MDBKF5D2 Cells grown in 7 mm chambers, and as Cryptosporidium parvum: GCH1 oocysts, 5 X 10^4 per well, and was conducted to compare paromomycin (positive control) against nitazoxanide (experimental drug). […] 5 x 104 C. parvum oocysts per well are incubated in the pre-mentioned concentrations of nitazoxanide at 37°C (8% CO2) on confluent MDBKF5D2 cell monolayers. The level of infection in each well was determined and computer analyzed by an immunofluorescence assay at 48 hours. […] (Medium control count - Drug test count)/(Medium control count)x 100 [formula] Conc. - µg/ml; Parasite - Mean parasite count/field (12 fields analyzed); %Inhib - Percent inhibitation of parasite infection; % Tox- Percent toxicity to cells by the drug.

[4] = test system: M. intracellular ATCC 13950; assay: MIC by standard agar dilution; format: cell-based, Mycobacterium intracellular; conditions: Mycobacterium, ATCC13950, 504 h, Middlebrook 7H11 agar, 3 weeks
Fasciola hepatica = assay: In vitro culture of mature flukes
Experimental: The in vitro efficacy of nitazoxanide and desacetyl-nitazoxanide was tested against Fasciola hepatica. Mature F. hepatica were recovered from the bile ducts of 3 calf livers condemned due to fasciolosis at the Louisiana Veterinary Medical Diagnostic Laboratory at the Hardy's Meat […], Bunkie, LA. Flukes were washed in sterile saline for 1 hour and transferred to sterile saline or RPMI (pH 7.4) for an additional 3 hours. Flukes were then held in sterile RPMI-rabbit serum (50:50 v/v) or sterile RPMI (pH 7.4) overnight at 37°C with 5% CO2. In vitro culture (37°C, 5% CO2) was done according to a modification of the method of Ibarra and Jenkins ([…]. 70:655-661, 1984). […] Only flukes that had normal activity and morphology were used. […] Two control flukes were included in each replicate, […] and one in unmedicated culture media […]. Flukes were examined for the effects of drug treatment as evidenced by death, motility disturbances or morpholgic changes as compared to untreated control flukes, using a backlighted panel and a lighted 3X magnifying lens.

MRC5 fibroblasts = assay: Toxicity on the cell monolayer in T. gondii cultures; conditions: 72 hours
C. parvum oocysts [5] = assay: Intact C. parvum oocyst assay (Example II), immunofluorescence; format: cell-based, Cryptosporidium parvum; conditions: 2 mg/ml; for inhibition at 2000 µg/mL: Cryptosporidium parvum, read-out: Percent Inhibition
Experimental: Nitazoxanide was dissolved in sterile dimethylsulfoxide (DMSO) and tested against intact C. parvum oocysts infected cell monolayers at concentrations of 100 µg/ml, 10 µg/ml/l µg/ml and 0.1 µg/ml. A second trail was performed which tested nitazoxanide at the additional concentrations of 20, 2, 0.2 and 0.02 µg/ml. These concentrations were achieved by serial dilutions with complete DMEM medium to yield a final DMSO concentration of 0.5%. The medium control also contacted 0.5% DMSO.
The experiment used a cell culture of MDBKF5D2 Cells grown in 7 mm chambers, and as Cryptosporidium parvum: GCH1 oocysts, 5 X 10^4 per well, and was conducted to compare paromomycin (positive control) against nitazoxanide (experimental drug). Materials included Immune Anti-Cryptosporidium parvum Sporozoite Rabbit Serum (0.1%) and Fluorescein-Conjugated Goat Anti-Rabbit Antibody (1%).
5 x 104 C. parvum oocysts per well were incubated in nitazoxanide (100, 20, 10, 2, 1, 0.2, 0.1 and 0.02 µg/ml) at 37°C (8% CO2) on confluent MDBKF5D2 cell monolayers. The level of infection in each well was determined and analyzed by an immunofluorescence assay at 24 to 48 hours. Percent Inhibition was calculated by subtracting the mean parasite count/10 field in the drug test wells from the mean parasite count/10 fields in the medium control (no drug), dividing by the medium control count, and then multiplying by 100. (Medium control count - Drug test count)/(Medium control count)x 100 [formula]

MDBKF5D2 cell monolayers [6] = format: cell-based; conditions: cattle, 2 mg/ml
Experimental: The drug was incubated on the monolayers at 37°C and 8% CO2. At 24 hours (trial 1) and 48 hours (trial 2), MTS (Owen's solution) the PMS were added to each well at concentrations of 333 µg/ml and 25 µM respectively. The plate was returned to the incubator in the dark to develop for two hours. At two hours, 100 µl of each supernatant was transferred to a new microtiter plate and read in the ELISA reader at 490nm. Results were recorded and analyzed. Percent toxicity was calculated by subtracting the mean optical density (OD) of the drug supernatants from the mean optical density (OD) of the medium control supernatants (no drug), dividing by the OD of the medium control and multiplying by 100. (OD medium - OD drug)/(OD medium)x 100 [formula]

[7] = 48 hr., Conc 0.01 µg/ml, 0.025% DMSO
[8] = 48 hr., Conc 0.1 µg/ml, 0.025% DMSO
[9] = 48 hr., Conc 1 µg/ml, 0.025% DMSO
[10] = 48 hr., Conc 10 µg/ml, 0.025% DMSO

O=C(Nc1ncc([N+](=O)[O-])s1)c1ccccc1O [Tizoxanide, desacetyl-nitazoxanide]
%Tox - Percent toxicity to cells by the drug (MDBKF5D2 cell monolayers [1]; [7]): 4.36% | Score (cytotoxicity score) (MDBKF5D2 cell monolayers [1]; [7]): 0 (0.5% toxicity = 0) | Tox/OD (MDBKF5D2 cell monolayers [1]; 48 hr., Conc 0.01 µg/ml, 0.025% DMSO, OD at 490 nm): 1.721 | %Tox - Percent toxicity to cells by the drug (MDBKF5D2 cell monolayers [1]; [8]): 16.29% | Score (cytotoxicity score) (MDBKF5D2 cell monolayers [1]; [8]): 1 (6-25% toxicity = 1) | Tox/OD (MDBKF5D2 cell monolayers [1]; 48 hr., Conc 0.1 µg/ml, 0.025% DMSO, OD at 490 nm): 1.506 | %Tox - Percent toxicity to cells by the drug (MDBKF5D2 cell monolayers [1]; [9]): 4.97% | Score (cytotoxicity score) (MDBKF5D2 cell monolayers [1]; [9]): 0 (0.5% toxicity = 0) | Tox/OD (MDBKF5D2 cell monolayers [1]; 48 hr., Conc 1 µg/ml, 0.025% DMSO, OD at 490 nm): 1.710 | %Tox - Percent toxicity to cells by the drug (MDBKF5D2 cell monolayers [1]; [10]): 81.27% | Score (cytotoxicity score) (MDBKF5D2 cell monolayers [1]; [10]): 4 (76-100% toxicity =- 4) | Tox/OD (MDBKF5D2 cell monolayers [1]; 48 hr., Conc 10 µg/ml, 0.025% DMSO, OD at 490 nm): .337 | concentration with significant effect (inhibition) ([2]; 72 hours): ≥ 0.6 mg/L | IC50 ([2]; Toxoplasma gondii, MRC5, 72 hours, estimated from regression analysis, read-out: 50% inhibitory concentration): 1.2 µg/mL (≈ 4.52 µM) | concentrations at which a marked inhibition of Toxoplasma growth could be observed ([2]; alteration of the parasitophorous vacuole, no marked alteration of the parasite itself): approximately 1.2 mg/L | Parasite - Mean parasite count/field (12 fields analyzed) (C. parvum oocysts [3]; Conc 0.01 µg/ml, 0.025% DMSO): 749.33 | Parasite - Mean parasite count/field (12 fields analyzed) (C. parvum oocysts [3]; Conc 0.1 µg/ml, 0.025% DMSO): 649.86 | Parasite - Mean parasite count/field (12 fields analyzed) (C. parvum oocysts [3]; Conc 1 µg/ml, 0.025% DMSO): 39.92 | %Inhib - Percent inhibitation of parasite infection (C. parvum oocysts [3]; Conc 1 µg/ml, 0.025% DMSO): 93.65% | Parasite - Mean parasite count/field (12 fields analyzed) (C. parvum oocysts [3]; Conc 10 µg/ml, 0.025% DMSO): 13.75 | %Inhib - Percent inhibitation of parasite infection (C. parvum oocysts [3]; Conc 10 µg/ml, 0.025% DMSO): 97.81% | inhibition at 0.01 µg/mL (C. parvum oocysts [3]; Cryptosporidium parvum, 48 h, Conc 0.01 µg/ml, 0.025% DMSO, read-out: %Inhib - Percent inhibitation of parasite infection): ≤ 0% | inhibition at 0.1 µg/mL (C. parvum oocysts [3]; Cryptosporidium parvum, 48 h, Conc 0.1 µg/ml, 0.025% DMSO, read-out: %Inhib - Percent inhibitation of parasite infection): ≤ 0% | inhibition at 1 µg/mL (C. parvum oocysts [3]; Cryptosporidium parvum, 48 h, Conc 1 µg/ml, 0.025% DMSO, read-out: %Inhib - Percent inhibitation of parasite infection): 94% | inhibition at 10 µg/mL (C. parvum oocysts [3]; Cryptosporidium parvum, 48 h, Conc 10 µg/ml, 0.025% DMSO, read-out: %Inhib - Percent inhibitation of parasite infection): 98% | MIC [4]: 4 µg/mL (≈ 15.1 µM) | effects on flukes (death, motility disturbances) (Fasciola hepatica; 1 µg treatment, listed as D-NTZ): Some slowing of activity was noted in the 1 µg group at 42-74 hours; also recorded: only 3 active and one moribund fluke remained alive at 91 hours; also recorded: at 115 hours only one sluggish fluke remained | effects on flukes (death, motility disturbances) (Fasciola hepatica; 3 µg treatment, listed as D-NTZ): Reduced activity in some individuals was seen by 24 hours in the 5 µg and 3 µg groups with a somewhat slower onset at 3 µg; also recorded: all were dead in the 3 and 5 µg treatment wells by 50 hours except one sluggish fluke in each group | effects on flukes (death, motility disturbances) (Fasciola hepatica; 5 µg treatment, listed as D-NTZ): Reduced activity in some individuals was seen by 24 hours; also recorded: all were dead in the 3 and 5 µg treatment wells by 50 hours except one sluggish fluke in each group | effects on flukes (death, motility disturbances) (Fasciola hepatica; 10 µg treatment, listed as D-NTZ): reduced activity was noted at 1, 3 and 4 hours; also recorded: all were moribund or dead by 7 hours | effects on flukes (death, motility disturbances) (Fasciola hepatica; 25 µg treatment, listed as D-NTZ): Four of 7 flukes in the 25 µg treatment were moribund, two were active, and one was sluggish within the first hour; also recorded: all were dead except two sluggish flukes by three hours; also recorded: only one sluggish fluke remained alive after four hours | effects on flukes (death, motility disturbances) (Fasciola hepatica; 50 µg treatment): moribund or dead within one hour | effects on flukes (death, motility disturbances) (Fasciola hepatica; 100 µg treatment): moribund or dead within one hour | time to rapid fluke death (Fasciola hepatica; in vitro medication rate 10µg): 6 to 7 h | time to rapid fluke death (Fasciola hepatica; in vitro medication rate 25 µg): ≤ 4 h | time to rapid fluke death (Fasciola hepatica; in vitro medication rates of >50 µg): ≤ 1 h | concentrations with marked toxicity on the cell monolayer (MRC5 fibroblasts): ≥ 2500 ng/mL

NC[C@@H]1O[C@H](O[C@H]2[C@@H](O)[C@H](O[C@@H]3[C@@H](O)[C@H](N)C[C@H](N)[C@H]3O[C@H]3O[C@H](CO)[C@@H](O)[C@H](O)[C@H]3N)O[C@@H]2CO)[C@H](N)[C@@H](O)[C@@H]1O [Paromomycin, reference compound]
inhibition at 2000 µg/mL (C. parvum oocysts [5]; Trial 1: 24 hrs): 51% | inhibition at 2000 µg/mL (C. parvum oocysts [5]; Trial 2: 48 hrs): 74% | Mean (+ SD) Parasite Count/10 Fields (C. parvum oocysts [5]; Trial 1: 24 hrs): 482(±47.1) | Mean (+ SD) Parasite Count/10 Fields (C. parvum oocysts [5]; Trial 2: 48 hrs): 580(+33.42) | Percent Toxicity (MDBKF5D2 cell monolayers [6]; 24 h): 23.8% | Percent Toxicity (MDBKF5D2 cell monolayers [6]; 48 h): 40.8% | %Tox - Percent toxicity to cells by the drug (MDBKF5D2 cell monolayers [1]; cattle, 48 h, 2000 µg/ml): 39.79% | Tox/OD (MDBKF5D2 cell monolayers [1]; cattle, 48 h, 2000 µg/ml): 1.219 | Parasite - Mean parasite count/field (12 fields analyzed) (C. parvum oocysts [3]; Conc 2000 µg/ml, aqueous media): 115.75 | inhibition at 2000 µg/mL (C. parvum oocysts [3]; Cryptosporidium parvum, 48 h, Conc 2000 µg/ml, aqueous media, read-out: %Inhib - Percent inhibitation of parasite infection): 83% | inhibition at 2000 µg/mL (C. parvum oocysts [3]; Cryptosporidium parvum, concentration of 2,000 µg/ml, positive control, Examples II and III, read-out: inhibition (range over the experiments)): 51 to 83% | times less effective (than nitazoxanide) (C. parvum oocysts [3]; same experimental condition, positive control): 2,000 times
